Results as given in patent US8017784B2, “Substituted sulfoxide compounds, methods for preparing the same and use thereof” (Livzon Pharmaceutical Group, Inc., priority 2005, dated 2011).

Tested on: Acute Gastric Ulcer of Rats
Assay: Effect on acute gastric ulcer of rats (pyloric ligation method, Shay method)
Format: in vivo
Settings: for Average Volume of Gastric Juice / Index of Ulcer (sum of the long diameter of each ulcer) / Inhibition Ratio of gastric juice / Inhibition Ratio of index of ulcer: SD female rats, 3 mg/kg via duodenum; for Average Volume of Gastric Juice / Index of Ulcer (sum of the long diameter of each ulcer): 6 hours after dosing; for Inhibition Ratio of gastric juice / Inhibition Ratio of index of ulcer: 6 hours, versus control group; for Inhibition of gastric juice secretion and ulceration compared with racemate: rats, result in words
Experimental: The effect of optically pure (+)/(−)-5-(1H-pyrrol-1-yl)-2-[[(4-methoxy-3-methyl-2-pyridyl)-methyl]sulfinyl]-1-hydro-benzimidazole on the acute gastric ulcer of rats were investigated using a pyloric ligation method (Shay method), and the results were compared with a normal control group and a racemate group. The specific test methods were as follows.
Twenty-six healthy SD female adult rats were divided randomly into 4 groups and fasted, except water, for 24 hours. Each rat was then anesthesized with 30 mg/kg Sodium Pentobarbital and subjected to pyloric ligation. After that, 3 groups of rats (treated group) were administered immediately via dodecadactylon with a racemate, a levo-enantiomer and a dextro-enantiomer of 5-(1H-pyrrol-1-yl)-2-[[(4-methoxy-3-methyl-2-pyridyl)-methyl]sulfinyl]-1-hydro-benzimidazole, respectively, at a dose of 3 mg/kg, and the other group (control group) is administered with the same volume of solvent.
All rats were then fasted including water for 6 hours followed by being sacrificed. The stomach was removed from rats after cardiac orifice ligation, and the volume of gastric juice was collected. After being fixed with 10% formalin solution, the stomach was incised along the greater curvature of stomach, the gastric wall was unwraped, and the degree and number of ulcers of the gastric mucosa were observed visually. Sum of the long diameter of each ulcer was defined as the index of ulcer. All rats were housed in metabolic cages during the test.

SMILES | Average Volume of Gastric Juice (3 mg/kg) | Index of Ulcer (sum of the long diameter of each ulcer) (3 mg/kg) | Inhibition Ratio of gastric juice (3 mg/kg) | Inhibition Ratio of index of ulcer (3 mg/kg) | Inhibition Ratio of index of ulcer | Inhibition of gastric juice secretion and ulceration compared with racemate (3 mg/kg)
COc1ccnc(C[S+]([O-])c2nc3cc(-n4cccc4)ccc3[nH]2)c1C (racemic) [Racemate, 5-(1H-pyrrol-1-yl)-2-[[(4-methoxy-3-methyl-2-pyridyl)-methyl]sulfinyl]-1-hydro-benzimidazole, reference compound] | 3.2 ± 2.3 mL | 14 ± 8 mm | 30.8% | 41.8% |  | 
COc1ccnc(C[S+]([O-])c2nc3cc(-n4cccc4)ccc3[nH]2)c1C (single isomer, unassigned; (+)) [Dextro-enantiomer, (+)-5-(1H-pyrrol-1-yl)-2-[[(4-methoxy-3-methyl-2-pyridyl)-methyl]sulfinyl]-1-hydro-benzimidazole] | 2.6 ± 1.1 mL | 6 ± 7 mm | 43.2% |  | 75.6% | more effective in inhibiting gastric juice secretion and ulceration as compared with their racemate
COc1ccnc(C[S+]([O-])c2nc3cc(-n4cccc4)ccc3[nH]2)c1C (single isomer, unassigned; (-)) [Levo-enantiomer, (−)-5-(1H-pyrrol-1-yl)-2-[[(4-methoxy-3-methyl-2-pyridyl)-methyl]sulfinyl]-1-hydro-benzimidazole] | 1.4 ± 1.0 mL | 6 ± 6 mm | 68.3% |  | 75.6% | more effective in inhibiting gastric juice secretion and ulceration as compared with their racemate
